From patent publication US20070196491A1, “DRUG DELIVERY SYSTEMS COMPRISING WEAKLY BASIC DRUGS AND ORGANIC ACIDS” (EURAND, INC., priority 2006, published 2007)
≈ marks a conversion by molar mass, not a printed value. Counter-ions that a name gives are not always drawn. Like-named read-outs stand apart in the source and are kept apart here.

What was measured:
[1] = pH 2.14
[2] = cited from earlier work
[3] = Solubilities of weakly basic drugs in organic acid buffers
[4] = intestinal regions; cited from earlier work

## Cc1nccn1CC1CCc2c(c3ccccc3n2C)C1=O (stereo not shown) [Ondansetron Hydrochloride, Ondansetron hydrochloride]
[1]
  Solubility of Ondansetron Hydrochloride: 27000 µg/mL
[2]; at a pH of 6.8
  solubility (in words): practically insoluble
[2]; at acidic pHs
  solubility (in words): fairly soluble
[3]; fumaric acid 0.0025 mg/mL, start pH 4.15, end pH 4.33
  Solubility of Ondansetron Hydrochloride: 26100 µg/mL
[3]; fumaric acid 0.01 mg/mL, start pH 3.64, end pH 4.05
  Solubility of Ondansetron Hydrochloride: 26100 µg/mL
[3]; fumaric acid 0.25 mg/mL, start pH 2.79, end pH 2.75
  Solubility of Ondansetron Hydrochloride: 26200 µg/mL
[3]; fumaric acid 1 mg/mL, start pH 2.48, end pH 2.40
  Solubility of Ondansetron Hydrochloride: 26100 µg/mL
[3]; fumaric acid 5 mg/mL, start pH 2.13, end pH 2.01
  Solubility of Ondansetron Hydrochloride: 26900 µg/mL

## O=C1CN=C(c2ccccc2Cl)c2cc([N+](=O)[O-])ccc2N1 [Clonazepam]
[3]; pH of buffer 4.8
  Solubility (mg/mL) of Clonazepam in Fumaric Acid: 0.0095 mg/mL

## COc1ccccc1OCCNCC(O)COc1cccc2[nH]c3ccccc3c12 (racemic) [Carvedilol]
[2]; above a pH of 9
  aqueous solubility: < 1 µg/mL
[2]; at a pH 5
  aqueous solubility: about 100 μg/mL
[2]; at a pH of 7
  aqueous solubility: about 23 μg/mL
[4]
  in vivo absorption within the intestine, decreasing order: jejunum>ileum>colon
physchem; pH 2.12, aqueous buffer
  solubility: 2510 µg/mL (≈ 6170 µM)
physchem; pH 2.28, aqueous buffer
  solubility: 1360 µg/mL (≈ 3350 µM)
physchem; pH 2.54, aqueous buffer
  solubility: 731 µg/mL (≈ 1800 µM)
physchem; pH 2.94, aqueous buffer
  solubility: 508 µg/mL (≈ 1250 µM)
physchem; pH 3.64, aqueous buffer
  solubility: 121 µg/mL (≈ 298 µM)
physchem; pH 5.46, aqueous buffer
  solubility: 105 µg/mL (≈ 258 µM)
physchem; pH 5.9, aqueous buffer
  solubility: 28 µg/mL (≈ 68.9 µM)

## OCCN(CCO)c1nc(N2CCCCC2)c2nc(N(CCO)CCO)nc(N3CCCCC3)c2n1 [Dipyridamole]
[2]; in dilute acids
  solubility (in words): soluble
[2]; in water, neutral and alkaline buffers
  solubility (in words): practically insoluble
